Results from the supplement of paper PMC11061612.

Key:
Assay in all cases: Bliss excess, mean over the matrix (fraction); higher = more synergy
[1] = system: BICR78 (Oral Cavity Carcinoma)
Outline: (§1)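 Cell lines grown in DMEM/F12 or RPMI with 10% FBS were plated in 1536-well plates and held 24 hours at 37°C, 5% CO2 before 72 hours of exposure to two-drug dose matrices, with DMSO typically at 0.2%. CellTiter-Glo 2.0 luminescence gave viability, which was converted to inhibition. Vehicle wells were set to 0 and blank wells to 1. Combination Emax is the second-highest inhibition in the matrix, and Bliss excess is the observed combination effect minus the expected EA + EB − EA·EB, where EA and EB are the single-agent effects.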

[2] = system: CAL-39 (Other Solid Carcinomas)
Outline: as §1

[3] = system: CS1 (Chondrosarcoma)
Outline: as §1

[4] = system: D-392MG (Glioblastoma)
Outline: as §1

[5] = system: DOK (Oral Cavity Carcinoma)
Outline: as §1

[6] = system: EW-22 (Ewing's Sarcoma)
Outline: as §1

[7] = system: H4 (Low Grade Glioma)
Outline: as §1

[8] = system: HCC38 (Breast Carcinoma)
Outline: as §1

[9] = system: HCT-116 (Colorectal Carcinoma)
Outline: as §1

[10] = system: HLE (Hepatocellular Carcinoma)
Outline: as §1

[11] = system: MEG-01 (Chronic Myelogenous Leukemia)
Outline: as §1

[12] = system: NOMO-1 (Acute Myeloid Leukemia)
Outline: as §1

[13] = system: P31-FUJ (Acute Myeloid Leukemia)
Outline: as §1

[14] = system: SLVL (B-Cell Non-Hodgkin's Lymphoma)
Outline: as §1

[15] = system: SNG-M (Endometrial Carcinoma)
Outline: as §1

[16] = system: SW48 (Colorectal Carcinoma)
Outline: as §1

[17] = system: SW948 (Colorectal Carcinoma)
Outline: as §1

[18] = system: Saos-2 (Osteosarcoma)
Outline: as §1

[19] = system: TC-YIK (Other Solid Carcinomas)
Outline: as §1

[20] = system: YT (Other Blood Carcinomas)
Outline: as §1

Compound | Bliss excess [1] | Bliss excess [2] | Bliss excess [3] | Bliss excess [4] | Bliss excess [5] | Bliss excess [6] | Bliss excess [7] | Bliss excess [8] | Bliss excess [9] | Bliss excess [10] | Bliss excess [11] | Bliss excess [12] | Bliss excess [13] | Bliss excess [14] | Bliss excess [15] | Bliss excess [16] | Bliss excess [17] | Bliss excess [18] | Bliss excess [19] | Bliss excess [20]
C=CCn1c(=O)c2cnc(Nc3ccc(N4CCN(C)CC4)cc3)nc2n1-c1cccc(C(C)(C)O)n1 [AZD1775] + CCc1c2c(nc3ccc(O)cc13)-c1cc3c(c(=O)n1C2)COC(=O)[C@]3(O)CC [SN-38] (first compound max 1 µM, partner max 0.3 µM) | -0.0403 | -0.0225 | -0.0705 | -0.0704 | -0.0096 | -0.0286 | 0.015 | -0.0765 | -0.0302 | -0.0436 | -0.0251 | -0.0208 | 0.0049 | -0.0701 | -0.0087 | -0.0052 | 0.141 | -0.0514 | -0.0451 | -0.0418
C=CCn1c(=O)c2cnc(Nc3ccc(N4CCN(C)CC4)cc3)nc2n1-c1cccc(C(C)(C)O)n1 [AZD1775] + Nc1ccn([C@@H]2O[C@H](CO)[C@@H](O)C2(F)F)c(=O)n1 [Gemcitabine] (first compound max 1 µM, partner max 0.3 µM) | 0.0412 | 0.0328 | -0.0007 | 0.013 | -0.0216 | -0.0431 | -0.0148 | 0.0214 | -0.0342 | 0.0609 | -0.0001 | 0.0485 | 0.0797 | -0.0357 | -0.0314 | 0.0828 | 0.104 | -0.0728 | -0.0642 | 0.0337
CN(CCO)CC[C@H](CSc1ccccc1)Nc1ccc(S(=O)(=O)NC(=O)c2ccc(N3CCC([C@@H](O)c4ccccc4-c4ccc(Cl)cc4)CC3)cc2)cc1S(=O)(=O)C(F)(F)F [AZD4320] + CC(=O)O[C@H]1C(=O)[C@@]2(C)[C@H]([C@H](OC(=O)c3ccccc3)[C@]3(O)C[C@H](OC(=O)[C@H](O)[C@@H](NC(=O)c4ccccc4)c4ccccc4)C(C)=C1C3(C)C)[C@]1(OC(C)=O)CO[C@@H]1C[C@@H]2O [Paclitaxel] (first compound max 1 µM, 7x7, partner max 3 µM) | 0.0354 | 0.0298 | 0.041 | 0.129 | 0.0565 | 0.0397 | -0.0229 | 0.0324 | 0.0182 | -0.0036 | -0.0006 | -0.0101 | -0.0004 | 0.032 | 0.0275 | -0.003 | -0.0074 | 0.0937 | 0.0183 | -0.0079
CN(CCO)CC[C@H](CSc1ccccc1)Nc1ccc(S(=O)(=O)NC(=O)c2ccc(N3CCC([C@@H](O)c4ccccc4-c4ccc(Cl)cc4)CC3)cc2)cc1S(=O)(=O)C(F)(F)F [AZD4320] + CS(=O)(=O)CCNCc1ccc(-c2ccc3ncnc(Nc4ccc(OCc5cccc(F)c5)c(Cl)c4)c3c2)o1 [Lapatinib] (first compound max 1 µM, 7x7, partner max 10 µM) | 0.0251 | 0.0372 | 0.0095 | -0.0269 | 0.0402 | 0.0967 | -0.0113 | 0.0173 | 0.0085 | 0.0535 | 0.103 | 0.0709 | 0.109 | 0.0675 | -0.0091 | 0.14 | 0.0049 | 0.083 | 0.0065 | 0.0643
CN(CCO)CC[C@H](CSc1ccccc1)Nc1ccc(S(=O)(=O)NC(=O)c2ccc(N3CCC([C@@H](O)c4ccccc4-c4ccc(Cl)cc4)CC3)cc2)cc1S(=O)(=O)C(F)(F)F [AZD4320] + Nc1ccn([C@@H]2O[C@H](CO)[C@@H](O)C2(F)F)c(=O)n1 [Gemcitabine] (first compound max 1 µM, 7x7, partner max 0.3 µM) | -0.0581 | 0.0174 | 0.0187 | 0.0921 | 0.0797 | 0.0287 | 0.0194 | -0.0171 | 0.0111 | 0.0579 | 0.0059 | 0.0208 | -0.0492 | -0.0135 | -0.0568 | 0.0089 | 0.0114 | 0.121 | -0.0091 | -0.0591
Cc1c2c(nn1C)CSCc1cc(n(C)n1)CSc1cc(c3ccccc3c1)OCCCc1c(C(=O)O)n(C)c3c-2c(Cl)ccc13 [AZD5991] + CC(=O)O[C@H]1C(=O)[C@@]2(C)[C@H]([C@H](OC(=O)c3ccccc3)[C@]3(O)C[C@H](OC(=O)[C@H](O)[C@@H](NC(=O)c4ccccc4)c4ccccc4)C(C)=C1C3(C)C)[C@]1(OC(C)=O)CO[C@@H]1C[C@@H]2O [Paclitaxel] (first compound max 1 µM, 7x7, partner max 3 µM) | -0.0412 | -0.0154 | -0.012 | 0.046 | -0.0004 | -0.0122 | 0.0003 | -0.0632 | -0.0211 | -0.0411 | 0.12 | -0.0215 | -0.0253 | -0.0181 | 0.0374 | -0.0091 | -0.0421 | 0.0358 | -0.0709 | -0.0159
Cc1c2c(nn1C)CSCc1cc(n(C)n1)CSc1cc(c3ccccc3c1)OCCCc1c(C(=O)O)n(C)c3c-2c(Cl)ccc13 [AZD5991] + CS(=O)(=O)CCNCc1ccc(-c2ccc3ncnc(Nc4ccc(OCc5cccc(F)c5)c(Cl)c4)c3c2)o1 [Lapatinib] (first compound max 1 µM, 7x7, partner max 10 µM) | -0.0065 | 0.0372 | -0.0458 | -0.0727 | 0.111 | -0.0028 | 0.0407 | -0.0638 | -0.0365 | 0.0311 | -0.0318 | -0.0873 | -0.0445 | 0.0502 | -0.0254 | 0.0213 | -0.0171 | -0.0071 | -0.0418 | 0.0331
Cc1c2c(nn1C)CSCc1cc(n(C)n1)CSc1cc(c3ccccc3c1)OCCCc1c(C(=O)O)n(C)c3c-2c(Cl)ccc13 [AZD5991] + Nc1ccn([C@@H]2O[C@H](CO)[C@@H](O)C2(F)F)c(=O)n1 [Gemcitabine] (first compound max 1 µM, 7x7, partner max 0.3 µM) | -0.0851 | 0.0269 | -0.0411 | -0.112 | -0.0008 | -0.0071 | -0.0393 | -0.0432 | -0.0854 | 0.0249 | -0.0412 | -0.0065 | 0.0115 | -0.014 | -0.0174 | -0.0377 | 0.0016 | 0.0374 | -0.0315 | 0.0413
C[C@@H]1COCCN1c1cc(C2([S@](C)(=N)=O)CC2)nc(-c2ccnc3[nH]ccc23)n1 [AZD6738] + C1CC(C1)(C(=O)[O-])C(=O)[O-].N.N.[Pt+2] [Carboplatin] (first compound max 10 µM, 7x7, partner max 10 µM) | -0.0459 | -0.0128 | -0.0674 | -0.0311 | 0.0086 | -0.0301 | 0.0025 | -0.0516 | 0.0014 | 0.0173 | -0.0513 | -0.0037 | -0.0078 | -0.0419 | -0.0448 | -0.0577 | -0.0659 | -0.0302 | -0.0631 | -0.0397
C[C@@H]1COCCN1c1cc(C2([S@](C)(=N)=O)CC2)nc(-c2ccnc3[nH]ccc23)n1 [AZD6738] + Nc1ccn([C@@H]2O[C@H](CO)[C@@H](O)C2(F)F)c(=O)n1 [Gemcitabine] (first compound max 10 µM, 7x7, partner max 0.3 µM) | 0.0298 | 0.0523 | 0.075 | -0.0224 | 0.0785 | 0.0068 | 0.0184 | 0.0715 | 0.0252 | 0.105 | -0.0258 | 0.058 | 0.0545 | -0.0284 | -0.0277 | -0.0329 | 0.0448 | 0.0312 | -0.0046 | 0.124
Cc1cc2ncnn2cc1Nc1ncc2c(n1)n(C1CCOCC1)c(=O)n2C [AZD7648] + COc1cc([C@@H]2c3cc4c(cc3[C@@H](O[C@@H]3O[C@@H]5CO[C@@H](C)O[C@H]5[C@H](O)[C@H]3O)[C@H]3COC(=O)[C@H]23)OCO4)cc(OC)c1O [Etoposide] (first compound max 10 µM, 7x7, partner max 10 µM) | 0.0789 | 0.0364 | 0.017 | 0.0658 | 0.109 | 0.112 | 0.0976 | 0.0373 | 0.13 | 0.116 | 0.102 | 0.113 | 0.101 | 0.0824 | 0.157 | 0.0487 | -0.0456 | 0.054 | 0.0886 | 0.0495
C[C@@H](Nc1cc(F)cc(F)c1)c1cc(C(=O)N(C)C)cc2c(=O)cc(N3CCOCC3)oc12 [AZD8186] + C1CN(CCC1(C(=O)N[C@@H](CCO)C2=CC=C(C=C2)Cl)N)C3=NC=NC4=C3C=CN4 [AZD5363] (first compound max 10 µM, 7x7, partner max 10 µM) | -0.0269 | 0.0492 | -0.0711 | -0.122 | -0.0231 | -0.0197 | -0.0049 | -0.0395 | -0.0362 | 0.0045 | -0.0906 | 0.0385 | -0.03 | 0.0553 | -0.0046 | -0.024 | 0.0414 | 0.0104 | -0.0292 | -0.0175
C[C@@H](Nc1cc(F)cc(F)c1)c1cc(C(=O)N(C)C)cc2c(=O)cc(N3CCOCC3)oc12 [AZD8186] + CC(=O)c1c(C)c2cnc(Nc3ccc(N4CCNCC4)cn3)nc2n(C2CCCC2)c1=O [Palbociclib] (first compound max 10 µM, 7x7, partner max 10 µM) | -0.0525 | 0.125 | 0.0326 | -0.0827 | 0.0079 | 0.05 | 0.122 | -0.0466 | 0.0488 | 0.0326 | -0.0585 | 0.0983 | -0.0164 | 0.0035 | -0.0361 | 0.0715 | -0.0457 | -0.0181 | 0.036 | 0.0407
C[C@@H](Oc1cc(-c2cnn(C3CCNCC3)c2)cnc1N)c1c(Cl)ccc(F)c1Cl [Crizotinib] + CC1=C(C(=CC=C1)Cl)NC(=O)C2=CN=C(S2)NC3=CC(=NC(=N3)C)N4CCN(CC4)CCO [Dasatinib] (first compound max 10 µM, 7x7, partner max 2 µM) | 0.0142 | 0.027 | 0.112 | 0.0503 | -0.0008 | -0.0466 | 0.0857 | 0.0255 | 0.0243 | 0.0195 | 0.0253 | -0.025 | -0.0311 | 0.0167 | 0.0813 | -0.0118 | -0.0118 | 0.0807 | -0.0378 | 0.0714
